Source: publication PMC12446476 (Nature Communications, 2025)
≈ marks a conversion by molar mass, not a printed value. Like-named read-outs stand apart in the source and are kept apart here.

System: N. gonorrhoeae
Experiment: MIC determination, Etest
Format: cell-based, Neisseria gonorrhoeae
Conditions: for MIC: Neisseria gonorrhoeae, comparator antibiotics, read-out: Minimum inhibitory concentration
Text: The 2024 WHO N. gonorrhoeae reference strains were used for quality control. Only whole MIC doubling dilutions are reported. Clinical breakpoints or the epidemiological cutoff (ECOFF, to indicate azithromycin resistance) from EUCAST (v14.0, https://www.eucast.org/clinical_breakpoints) were used to classify isolates as antimicrobial susceptible or resistant. […] Two times the standard inoculum defined by CLSI was used to establish consistent growth in untreated control samples for some strains. In vitro time-kill assays were performed according to CLSI guidelines[65] using Columbia Broth (BD Difco) supplemented with 1% IsoVitaleX Enrichment (BD). Viable bacterial counts were generated by plating 10-fold serially diluted samples on GC agar plates containing 1% IsoVitaleX Enrichment (BD).

SMILES: CN[C@@H]1[C@H](O)[C@H](NC)[C@H]2O[C@@]3(O)C(=O)C[C@@H](C)O[C@H]3O[C@@H]2[C@H]1O [Spectinomycin]
- MIC (clinical N. gonorrhoeae isolate 50, Sweden 2023): 16 µg/mL (≈ 48.1 µM)
- MIC (clinical N. gonorrhoeae isolate 51, Sweden 2023): 8 µg/mL (≈ 24.1 µM)
- MIC (clinical N. gonorrhoeae isolate 52, Sweden 2023): 16 µg/mL (≈ 48.1 µM)
- MIC (clinical N. gonorrhoeae isolate 53, Sweden 2023): 8 µg/mL (≈ 24.1 µM)
- MIC (clinical N. gonorrhoeae isolate 54, Sweden 2023): 16 µg/mL (≈ 48.1 µM)
- MIC (clinical N. gonorrhoeae isolate 55, Sweden 2023): 16 µg/mL (≈ 48.1 µM)
- MIC (clinical N. gonorrhoeae isolate 56, Sweden 2023): 8 µg/mL (≈ 24.1 µM)
- MIC (clinical N. gonorrhoeae isolate 57, Sweden 2023): 8 µg/mL (≈ 24.1 µM)
- MIC (clinical N. gonorrhoeae isolate 58, Sweden 2023): 8 µg/mL (≈ 24.1 µM)
- MIC (clinical N. gonorrhoeae isolate 59, Sweden 2023): 8 µg/mL (≈ 24.1 µM)
- MIC (clinical N. gonorrhoeae isolate 60, Sweden 2023): 16 µg/mL (≈ 48.1 µM)
- MIC (clinical N. gonorrhoeae isolate 61, Sweden 2023): 8 µg/mL (≈ 24.1 µM)
- MIC (clinical N. gonorrhoeae isolate 62, Sweden 2023): 8 µg/mL (≈ 24.1 µM)
- MIC (clinical N. gonorrhoeae isolate 63, Sweden 2023): 16 µg/mL (≈ 48.1 µM)
- MIC (clinical N. gonorrhoeae isolate 64, Sweden 2023): 16 µg/mL (≈ 48.1 µM)
- MIC (clinical N. gonorrhoeae isolate 65, Sweden 2023): 16 µg/mL (≈ 48.1 µM)
- MIC (clinical N. gonorrhoeae isolate 66, Sweden 2023): 16 µg/mL (≈ 48.1 µM)
- MIC (clinical N. gonorrhoeae isolate 67, Sweden 2023): 16 µg/mL (≈ 48.1 µM)
- MIC (clinical N. gonorrhoeae isolate 68, Sweden 2023): 16 µg/mL (≈ 48.1 µM)
- MIC (clinical N. gonorrhoeae isolate 69, Sweden 2023): 16 µg/mL (≈ 48.1 µM)
- MIC (clinical N. gonorrhoeae isolate 70, Sweden 2023): 8 µg/mL (≈ 24.1 µM)
- MIC (clinical N. gonorrhoeae isolate 71, Sweden 2023): 16 µg/mL (≈ 48.1 µM)
- MIC (clinical N. gonorrhoeae isolate 72, Sweden 2023): 8 µg/mL (≈ 24.1 µM)
- MIC (clinical N. gonorrhoeae isolate 73, Sweden 2023): 16 µg/mL (≈ 48.1 µM)
- MIC (clinical N. gonorrhoeae isolate 74, Sweden 2023): 16 µg/mL (≈ 48.1 µM)
- MIC (clinical N. gonorrhoeae isolate 75, Sweden 2023): 8 µg/mL (≈ 24.1 µM)
- MIC (clinical N. gonorrhoeae isolate 76, Sweden 2023): 8 µg/mL (≈ 24.1 µM)
- MIC (clinical N. gonorrhoeae isolate 77, Sweden 2023): 16 µg/mL (≈ 48.1 µM)
- MIC (clinical N. gonorrhoeae isolate 78, Sweden 2023): 16 µg/mL (≈ 48.1 µM)
- MIC (clinical N. gonorrhoeae isolate 79, Sweden 2023): 8 µg/mL (≈ 24.1 µM)
- MIC (clinical N. gonorrhoeae isolate 80, Sweden 2023): 16 µg/mL (≈ 48.1 µM)
- MIC (clinical N. gonorrhoeae isolate 81, Sweden 2023): 16 µg/mL (≈ 48.1 µM)
- MIC (clinical N. gonorrhoeae isolate 82, Sweden 2023): 16 µg/mL (≈ 48.1 µM)
- MIC (clinical N. gonorrhoeae isolate 83, Sweden 2023): 8 µg/mL (≈ 24.1 µM)
- MIC (clinical N. gonorrhoeae isolate 84, Sweden 2023): 16 µg/mL (≈ 48.1 µM)
- MIC (clinical N. gonorrhoeae isolate 85, Sweden 2023): 8 µg/mL (≈ 24.1 µM)
- MIC (clinical N. gonorrhoeae isolate 86, Sweden 2023): 8 µg/mL (≈ 24.1 µM)
- MIC (clinical N. gonorrhoeae isolate 87, Sweden 2023): 8 µg/mL (≈ 24.1 µM)
- MIC (clinical N. gonorrhoeae isolate 88, Sweden 2023): 16 µg/mL (≈ 48.1 µM)
- MIC (clinical N. gonorrhoeae isolate 89, Sweden 2023): 16 µg/mL (≈ 48.1 µM)
- MIC (clinical N. gonorrhoeae isolate 90, Sweden 2023): 16 µg/mL (≈ 48.1 µM)
- MIC (clinical N. gonorrhoeae isolate 91, Sweden 2023): 4 µg/mL (≈ 12 µM)
- MIC (clinical N. gonorrhoeae isolate 92, Sweden 2023): 8 µg/mL (≈ 24.1 µM)
- MIC (clinical N. gonorrhoeae isolate 93, Sweden 2023): 16 µg/mL (≈ 48.1 µM)
- MIC (clinical N. gonorrhoeae isolate 94, Sweden 2023): 8 µg/mL (≈ 24.1 µM)
- MIC (clinical N. gonorrhoeae isolate 95, Sweden 2023): 16 µg/mL (≈ 48.1 µM)
- MIC (clinical N. gonorrhoeae isolate 96, Sweden 2023): 8 µg/mL (≈ 24.1 µM)
- MIC (clinical N. gonorrhoeae isolate 97, Sweden 2023): 16 µg/mL (≈ 48.1 µM)
- MIC (clinical N. gonorrhoeae isolate 98, Sweden 2023): 4 µg/mL (≈ 12 µM)
- MIC (clinical N. gonorrhoeae isolate 99, Sweden 2023): 4 µg/mL (≈ 12 µM)
- MIC (clinical N. gonorrhoeae isolate 100, Sweden 2023): 16 µg/mL (≈ 48.1 µM)
- AMR phenotype (susceptibility category, EUCAST) (WHO F): S
- AMR phenotype (susceptibility category, EUCAST) (WHO H): S
- AMR phenotype (susceptibility category, EUCAST) (WHO K): S
- AMR phenotype (susceptibility category, EUCAST) (WHO L): S
- AMR phenotype (susceptibility category, EUCAST) (WHO M): S
- AMR phenotype (susceptibility category, EUCAST) (WHO O): R
- AMR phenotype (susceptibility category, EUCAST) (WHO P): S
- AMR phenotype (susceptibility category, EUCAST) (WHO Q): S
- AMR phenotype (susceptibility category, EUCAST) (WHO R): S
- AMR phenotype (susceptibility category, EUCAST) (WHO S2): S
- AMR phenotype (susceptibility category, EUCAST) (WHO U): S
- AMR phenotype (susceptibility category, EUCAST) (WHO V): S
- AMR phenotype (susceptibility category, EUCAST) (WHO X): S
- AMR phenotype (susceptibility category, EUCAST) (WHO Y): S
- AMR phenotype (susceptibility category, EUCAST) (WHO Z): S
